Where only a bound is given, the exact number is not on record here.

Data set [1] concerns the target Multidrug resistance-associated protein 1 (Homo sapiens, UniProt P33527). As to the kind of experiment: The MRP1 antagonism score is the percentage of MCF-7/VP cells surviving in the absence of vincristine to that of in the presence of vincristine. The format is functional.
Data set [2] has as its system MCF7. As to the kind of experiment: Cytotoxicity against MCF-7 breast carcinoma cells at 10 ug/mL. Particulars: Homo sapiens. Type of data set: functional, cell-based.
Data set [3] relates to MCF7. The format is functional, Homo sapiens.

Sequence of Multidrug resistance-associated protein 1 (P33527 whole entry): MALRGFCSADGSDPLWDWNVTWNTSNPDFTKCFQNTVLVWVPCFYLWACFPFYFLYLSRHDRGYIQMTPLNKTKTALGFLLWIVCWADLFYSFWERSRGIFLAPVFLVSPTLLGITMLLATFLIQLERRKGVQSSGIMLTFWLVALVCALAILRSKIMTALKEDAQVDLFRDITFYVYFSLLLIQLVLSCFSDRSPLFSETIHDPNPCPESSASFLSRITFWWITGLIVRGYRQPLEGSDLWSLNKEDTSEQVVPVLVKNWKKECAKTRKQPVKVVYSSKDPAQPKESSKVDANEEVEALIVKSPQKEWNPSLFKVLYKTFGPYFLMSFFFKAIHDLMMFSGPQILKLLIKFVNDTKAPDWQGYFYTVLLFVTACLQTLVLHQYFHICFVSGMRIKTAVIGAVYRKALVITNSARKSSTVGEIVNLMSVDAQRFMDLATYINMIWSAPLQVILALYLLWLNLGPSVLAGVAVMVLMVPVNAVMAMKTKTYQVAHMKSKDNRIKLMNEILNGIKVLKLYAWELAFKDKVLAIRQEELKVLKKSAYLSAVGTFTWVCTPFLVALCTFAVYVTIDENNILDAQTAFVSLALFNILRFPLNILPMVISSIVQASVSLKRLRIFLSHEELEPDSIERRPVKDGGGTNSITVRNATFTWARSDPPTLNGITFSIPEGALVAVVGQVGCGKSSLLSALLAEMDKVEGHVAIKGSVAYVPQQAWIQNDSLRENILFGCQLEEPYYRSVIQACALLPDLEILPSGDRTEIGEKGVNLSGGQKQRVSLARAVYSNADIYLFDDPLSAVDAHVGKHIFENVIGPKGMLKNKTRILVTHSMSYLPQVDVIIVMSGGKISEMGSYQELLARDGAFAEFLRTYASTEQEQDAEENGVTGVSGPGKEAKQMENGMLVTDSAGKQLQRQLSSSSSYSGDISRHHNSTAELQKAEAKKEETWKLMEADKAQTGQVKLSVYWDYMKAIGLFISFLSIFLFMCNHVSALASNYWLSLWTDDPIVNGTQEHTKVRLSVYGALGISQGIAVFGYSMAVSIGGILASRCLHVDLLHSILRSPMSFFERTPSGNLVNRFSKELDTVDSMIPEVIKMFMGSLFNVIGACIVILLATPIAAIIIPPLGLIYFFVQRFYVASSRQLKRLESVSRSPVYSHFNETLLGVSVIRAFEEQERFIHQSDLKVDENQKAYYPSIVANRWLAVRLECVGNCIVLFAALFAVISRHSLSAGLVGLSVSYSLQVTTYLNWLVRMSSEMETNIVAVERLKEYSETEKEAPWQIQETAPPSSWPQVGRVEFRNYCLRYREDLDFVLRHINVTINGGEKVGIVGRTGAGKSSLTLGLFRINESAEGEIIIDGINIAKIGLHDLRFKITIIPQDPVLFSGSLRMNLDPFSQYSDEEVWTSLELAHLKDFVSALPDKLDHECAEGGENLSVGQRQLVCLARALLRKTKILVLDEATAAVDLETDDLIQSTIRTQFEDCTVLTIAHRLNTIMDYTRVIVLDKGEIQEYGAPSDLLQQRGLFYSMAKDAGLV

On to `CCOC(=O)c1ccc(OCc2nc3ccccc3n(C)c2=O)cc1`, for which the Ratio in data set [1] was found to be 0.9. In the data set with MCF7 [2], this compound showed an IC50 of over 74 µM.
As for `Nc1ccc(Br)cc1-c1nc2cc3ccccc3cc2nc1O`, in data set [1], the Ratio was determined as 1.3. This compound also registered a Toxicity in the data set with MCF7 [3] of 49%.
For `Cn1c(=O)c(COc2ccccc2)nc2ccccc21`, the Ratio in data set [1] is recorded as 1. Further, the IC50 in the data set with MCF7 [2] was over 94 µM.
The matching figures for `Cn1c(=O)c(COc2cccnc2)nc2ccccc21`: 1.1 and over 56 µM.
The matching figures for `Cn1c(=O)c(COc2c(F)c(F)c(F)c(F)c2F)nc2ccccc21`: 0.8 and over 70 µM.
For `Nc1ccccc1-c1nc2ccccc2nc1O`, in data set [1], the Ratio came to 1.1. The Toxicity in the data set with MCF7 [3] was 22%.
With `Cn1c(=O)c(COc2cccc3ccccc23)nc2ccccc21`, the Ratio in data set [1] was 0.9. Besides, 20 µM corresponded to half-maximal inhibition in the data set on MCF7 [2] (IC50).
The matching figures for `Cn1c(=O)c(COc2ccc(C(=O)c3ccccc3)cc2)nc2ccccc21`: 0.9 and over 67 µM.
Turning to `CN(C)c1cccc(OCc2nc3ccccc3n(C)c2=O)c1`, the Ratio in data set [1] was 0.9. Besides, the midpoint of inhibition in the data set on MCF7 [2], the IC50, lay at 57 µM.
The like results for `Cc1nc2ccccc2nc1O` were, in that order, 1.1 and over 156 µM.
`Nc1ccccc1-c1nc2cc3ccccc3cc2nc1O`: in data set [1], the Ratio came out at 1.3. Further, the Toxicity in the data set on MCF7 [3] is 37%.
On to `Cn1c(=O)c(COc2ccccc2C(=O)Nc2ccccc2)nc2ccccc21`, for which the Ratio in data set [1] was found to be 1. In the data set on MCF7 [2], the IC50 was over 32 µM.
For `Cn1c(=O)c(Cc2ccccc2)nc2ccccc21`, the Ratio in data set [1] is 1.1. The compound further displayed an IC50 in the data set on MCF7 [2] of over 100 µM.
Regarding `CNc1ccc(OC)cc1-c1nc2cc3ccccc3cc2nc1O`, in data set [1], the Ratio was 1. In addition, in the data set with MCF7 [3], the Toxicity was found to be 25%.
Take `Cn1c(=O)c(COc2ccccc2Cc2ccccc2)nc2ccccc21`: the Ratio in data set [1] came out at 1.1. This compound showed an IC50 with MCF7 [2] of 8.1 µM.
As to `CNc1ccc(OC)cc1-c1nc2cc3ccccc3cc2n(C)c1=O`, the Ratio in data set [1] turned out to be 2.1. Further, in the data set on MCF7 [3], the Toxicity worked out at 3%.
In the case of `COC(=O)c1ccc(OCc2nc3ccccc3n(C)c2=O)c(OC)c1`, the Ratio in data set [1] is listed as 1.1. In the data set on MCF7 [2], the midpoint of inhibition, the IC50, lay at 71 µM.
The like results for `Cn1c(=O)c(COc2ccc(F)cc2)nc2ccccc21` were, in that order, 0.8 and 26 µM.
Turning to `Oc1nc2ccccc2nc1Cc1ccccc1`, the Ratio in data set [1] is 1. In the data set with MCF7 [2], this compound had an IC50 of over 106 µM.
Regarding `CNc1ccc(OC)cc1-c1nc2ccccc2n(C)c1=O`, the Ratio in data set [1] turned out to be 3.5. Further, the Toxicity in the data set with MCF7 [3] came out at 7%.
Take `Cn1c(=O)c(COc2ccc(C#N)cc2)nc2ccccc21`: in data set [1], the Ratio was found to be 0.8. In the data set with MCF7 [2], this compound showed an IC50 of over 43 µM.
The like results for `Cc1cc(OCc2nc3ccccc3n(C)c2=O)ccc1[N+](=O)[O-]` were, in that order, 1.1 and over 77 µM.
As for `CNc1ccccc1-c1nc2cc([N+](=O)[O-])ccc2n(C)c1=O`, in data set [1], the Ratio worked out at 1.1. In the data set on MCF7 [3], the Toxicity was found to be 7%.
On to `Cc1nc2ccccc2n(C)c1=O`, for which, in data set [1], the Ratio is on record as 0.7. The compound also displayed an IC50 in the data set with MCF7 [2] of over 144 µM.
The matching figures for `Cn1c(=O)c(COc2ccc(-c3ccccc3)cc2)nc2ccccc21`: 0.7 and 30 µM.
For `Cn1c(=O)c(COc2cccc(Nc3ccccc3)c2)nc2ccccc21`, the Ratio in data set [1] amounted to 0.9. Besides, the 50% inhibitory concentration (IC50) in the data set on MCF7 [2] is 25 µM.
`COc1ccc(CCN(C)CCCC(C#N)(c2ccc(OC)c(OC)c2)C(C)C)cc1OC` (stereo not drawn) registered an IC50 in the data set with MCF7 [2] of over 51 µM.

The record behind these values is ChEMBL document CHEMBL1134347, “Structure-activity studies of substituted quinoxalinones as multiple-drug-resistance antagonists” (J Med Chem, 2001).
